The values that follow come from US20090226408A1, “ANTI-FATIGUE COMPOSITION” (KANEKA CORPORATION, priority 2005, published 2009).

For the assay, the system named is Sprague-Dawley male rats. The experiment in a line: Treadmill test using young rat (maximum running time). Format: in vivo. The conditions noted are these: reduced coenzyme Q10 100 mg/kg, lipoic acid 30 mg/kg; for extension of the maximum running time (after the sample administration relative to before the administration), Average: Sprague-Dawley male rats 7 to 10 week old, oral in 0.5% CMC-Na, before vs three hours after administration; for extension of the maximum running time, significance: single agents: before vs after administration, combination: compared to control group, oral, three hours after administration. As to the method:
Using Sprague-Dawley male rats (7 to 10 week old, n=20), anti-fatigue effects brought about by reduced coenzyme Q10 alone (about 2% of oxidized coenzyme Q10 included), lipoic acid alone, and combination use of reduced coenzyme Q10 and lipoic acid were evaluated with a treadmill. In the test, rats were run at a speed of 10 m/min using a treadmill apparatus (model NK-73-4 made by Natume Seisakusho Co., Ltd.), and the speed was increased stepwise, by 5 m/min every 3 min, and the time when the rats became unable to run (maximum running time) was measured.
As substances to be tested, 0.5% sodium carboxymethylcellulose (CMC-Na) aqueous solutions of reduced coenzyme Q10 (about 2% oxidized coenzyme Q10 included) or lipoic acid (α-lipoic acid (manufactured by Tokyo Chemical Industry Co., Ltd.)) were each prepared and the solutions were orally administered to rats at a dose of 100 mg/kg for reduced coenzyme Q10 or at a dose of 30 mg/kg for lipoic acid. Rats were divided into four groups of a solvent administered group, reduced coenzyme Q10 only administered group, lipoic acid only administered group, and a reduced coenzyme Q10 and lipoic acid combined group (reduced coenzyme Q10 and lipoic acid were administered almost simultaneously). The maximum running time was measured before and three hours after the administration and an extension of the maximum running time (after the sample administration relative to before the administration) was calculated. A 0.5% CMC-Na aqueous solution was administered to the control group.

In the case of `COc1c(O)c(C)c(C/C=C(\C)CC/C=C(\C)CC/C=C(\C)CC/C=C(\C)CC/C=C(\C)CC/C=C(\C)CC/C=C(\C)CC/C=C(\C)CC/C=C(\C)CCC=C(C)C)c(O)c1OC` [Reduced coenzyme Q10, reduced coenzyme Q10], the “extension of the maximum running time (after the sample administration relative to before the administration), Average” value was found to be 17.5 s and the “extension of the maximum running time, significance” value was “no significant extension”.
Take `O=C(O)CCCCC1CCSS1` (stereo not shown) [Lipoic acid, 1,2-dithioran-3-pentanoic acid]: the “extension of the maximum running time (after the sample administration relative to before the administration), Average” value amounted to 7.3 s and the “extension of the maximum running time, significance” value is listed as “no significant extension”.
